Assay results as given in ChEMBL document CHEMBL1201862, “PubChem BioAssay data set” (2004).
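Exposure lasted 48 hours, with cells grown in 96-well plates and compounds tested at five concentrations. At the GI50, growth is halved.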 Active and inactive are the calls of the source. No stated cut-off is given here; in the data, active = GI50 up to about 1.1 µM and inactive = higher.

Legend:
Assay in all cases: NCI tumour cell line growth inhibition, 48 h
786-0 = system: 786-0
A498 = system: A498
A549 = system: A549
ACHN = system: ACHN
CAKI-1 = system: CAKI-1
CCRF-CEM = system: CCRF-CEM
COLO 205 = system: COLO 205
DLD-1 = system: DLD-1
DMS-114 = system: DMS-114
DMS-273 = system: DMS-273
EKVX = system: EKVX
HCC 2998 = system: HCC 2998
HCT-116 = system: HCT-116
HCT-15 = system: HCT-15
HL-60 = system: HL-60
HOP-18 = system: HOP-18
HOP-62 = system: HOP-62
HOP-92 = system: HOP-92
HT-29 = system: HT-29
IGROV-1 = system: IGROV-1
K562 = system: K562
KM-20L2 = system: KM-20L2
KM12 = system: KM12
LOX IMVI = system: LOX IMVI
LXFL 529 = system: LXFL 529
M14 = system: M14
M19-MEL = system: M19-MEL
MOLT-4 = system: MOLT-4
Malme-3M = system: Malme-3M
NCI-H226 = system: NCI-H226
NCI-H23 = system: NCI-H23
NCI-H460 = system: NCI-H460
NCI-H522 = system: NCI-H522
OVCAR-3 = system: OVCAR-3
OVCAR-4 = system: OVCAR-4
OVCAR-5 = system: OVCAR-5
OVCAR-8 = system: OVCAR-8
RPMI-8226 = system: RPMI-8226
RXF 393 = system: RXF 393
SF-268 = system: SF-268
SF-295 = system: SF-295
SK-OV-3 = system: SK-OV-3
SN12C = system: SN12C
SNB-19 = system: SNB-19
SNB-75 = system: SNB-75
SNB-78 = system: SNB-78
SR = system: SR
SW-620 = system: SW-620
TK-10 = system: TK-10
U-251 = system: U-251
UACC-257 = system: UACC-257
UACC-62 = system: UACC-62
UO-31 = system: UO-31
XF498 = system: XF498
BT-549 = system: BT-549
DU-145 = system: DU-145
Hs-578T = system: Hs-578T
MCF7 = system: MCF7
MDA-MB-231 = system: MDA-MB-231
MDA-MB-435 = system: MDA-MB-435
MDA-N = system: MDA-N
NCI/ADR-RES = system: NCI/ADR-RES
PC-3 = system: PC-3
RXF 631 = system: RXF 631
SF-539 = system: SF-539
SK-MEL-28 = system: SK-MEL-28
SK-MEL-2 = system: SK-MEL-2
SK-MEL-5 = system: SK-MEL-5
T47D = system: T47D

**Q.** O=C(Nc1ccc(Cl)c(C(F)(F)F)c1)C(=O)C(C(=O)/C=C/c1ccccc1)C1OC(=O)c2ccccc21 (stereo not drawn) was tested. Which GI50 (786-0) did it give?
**A.** The GI50 was > 100000 nM (inactive).

**Q.** What about the GI50 (A498) of the same compound?
**A.** The GI50 was > 100000 nM (inactive).

**Q.** And the GI50 (A549)?
**A.** Its GI50 is > 100000 nM (inactive).

**Q.** What about the GI50 (ACHN) of the same compound?
**A.** The GI50 was > 100000 nM (inactive).

**Q.** And the GI50 (CAKI-1)?
**A.** The GI50 was > 100000 nM (inactive).

**Q.** What about the GI50 (CCRF-CEM) of the same compound?
**A.** Its GI50 is > 100000 nM (inactive).

**Q.** What about the GI50 (COLO 205) of the same compound?
**A.** The GI50 was > 100000 nM (inactive).

**Q.** What about the GI50 (DLD-1) of the same compound?
**A.** Its GI50 is > 100000 nM (inactive).

**Q.** What about the GI50 (DMS-114) of the same compound?
**A.** The GI50 was 66500 nM (inactive).

**Q.** And the GI50 (DMS-273)?
**A.** Its GI50 is > 100000 nM (inactive).

**Q.** And the GI50 (EKVX)?
**A.** Its GI50 is > 100000 nM (inactive).

**Q.** And the GI50 (HCC 2998)?
**A.** The GI50 was > 100000 nM (inactive).

**Q.** And the GI50 (HCT-116)?
**A.** Its GI50 is 33100 nM (inactive).

**Q.** And the GI50 (HCT-15)?
**A.** Its GI50 is > 100000 nM.

**Q.** And the GI50 (HL-60)?
**A.** Its GI50 is > 100000 nM (inactive).

**Q.** And the GI50 (HOP-18)?
**A.** Its GI50 is > 100000 nM (inactive).

**Q.** And the GI50 (HOP-62)?
**A.** The GI50 was > 100000 nM (inactive).

**Q.** What about the GI50 (HOP-92) of the same compound?
**A.** The GI50 was > 100000 nM (inactive).

**Q.** And the GI50 (HT-29)?
**A.** The GI50 was > 100000 nM (inactive).

**Q.** What about the GI50 (IGROV-1) of the same compound?
**A.** Its GI50 is > 100000 nM (inactive).

**Q.** And the GI50 (K562)?
**A.** The GI50 was > 100000 nM (inactive).

**Q.** What about the GI50 (KM-20L2) of the same compound?
**A.** The GI50 was > 100000 nM (inactive).

**Q.** And the GI50 (KM12)?
**A.** The GI50 was > 100000 nM (inactive).

**Q.** And the GI50 (LOX IMVI)?
**A.** The GI50 was 90200 nM (inactive).

**Q.** What about the GI50 (LXFL 529) of the same compound?
**A.** Its GI50 is 57400 nM (inactive).

**Q.** What about the GI50 (M14) of the same compound?
**A.** The GI50 was > 100000 nM (inactive).

**Q.** And the GI50 (M19-MEL)?
**A.** Its GI50 is 84900 nM (inactive).

**Q.** And the GI50 (MOLT-4)?
**A.** The GI50 was > 100000 nM (inactive).

**Q.** What about the GI50 (Malme-3M) of the same compound?
**A.** The GI50 was > 100000 nM (inactive).

**Q.** And the GI50 (NCI-H226)?
**A.** The GI50 was > 100000 nM (inactive).

**Q.** What about the GI50 (NCI-H23) of the same compound?
**A.** The GI50 was > 100000 nM (inactive).

**Q.** And the GI50 (NCI-H460)?
**A.** The GI50 was > 100000 nM (inactive).

**Q.** What about the GI50 (NCI-H522) of the same compound?
**A.** Its GI50 is 63100 nM (inactive).

**Q.** What about the GI50 (OVCAR-3) of the same compound?
**A.** The GI50 was > 100000 nM (inactive).

**Q.** What about the GI50 (OVCAR-4) of the same compound?
**A.** The GI50 was > 100000 nM (inactive).

**Q.** And the GI50 (OVCAR-5)?
**A.** The GI50 was > 100000 nM (inactive).

**Q.** And the GI50 (OVCAR-8)?
**A.** The GI50 was > 100000 nM (inactive).

**Q.** What about the GI50 (RPMI-8226) of the same compound?
**A.** Its GI50 is 72800 nM (inactive).

**Q.** What about the GI50 (RXF 393) of the same compound?
**A.** The GI50 was 93500 nM (inactive).

**Q.** And the GI50 (SF-268)?
**A.** The GI50 was > 100000 nM (inactive).

**Q.** What about the GI50 (SF-295) of the same compound?
**A.** The GI50 was > 100000 nM (inactive).

**Q.** What about the GI50 (SK-OV-3) of the same compound?
**A.** The GI50 was > 100000 nM (inactive).

**Q.** And the GI50 (SN12C)?
**A.** The GI50 was > 100000 nM (inactive).

**Q.** What about the GI50 (SNB-19) of the same compound?
**A.** The GI50 was > 100000 nM (inactive).

**Q.** And the GI50 (SNB-75)?
**A.** Its GI50 is > 100000 nM (inactive).

**Q.** And the GI50 (SNB-78)?
**A.** The GI50 was 64000 nM (inactive).

**Q.** And the GI50 (SR)?
**A.** The GI50 was > 100000 nM (inactive).

**Q.** And the GI50 (SW-620)?
**A.** Its GI50 is > 100000 nM (inactive).

**Q.** What about the GI50 (TK-10) of the same compound?
**A.** The GI50 was > 100000 nM (inactive).

**Q.** And the GI50 (U-251)?
**A.** Its GI50 is 51900 nM (inactive).

**Q.** And the GI50 (UACC-257)?
**A.** The GI50 was > 100000 nM (inactive).

**Q.** And the GI50 (UACC-62)?
**A.** Its GI50 is 71100 nM (inactive).

**Q.** What about the GI50 (UO-31) of the same compound?
**A.** The GI50 was > 100000 nM (inactive).

**Q.** And the GI50 (XF498)?
**A.** The GI50 was > 100000 nM (inactive).

**Q.** Which results are given for CCN(CC)CCC(=O)O[C@H]1CC[C@H](CC(C)[C@H]2CC(=O)C(C)C=C(C)[C@H](OC(=O)CCN(CC)CC)C(OC)C(=O)[C@@H](C)CC(C)/C=C/C=C/C=C(C)C(OC)CC3CC[C@H](C)[C@](O)(O3)C(=O)C(=O)N3CCCCC3C(=O)O2)CC1OC (stereo partly drawn)?
**A.** GI50 (786-0): 19.7 nM (active); GI50 (A498): 16.1 nM (active); GI50 (A549): 251 nM (active); GI50 (ACHN): 348 nM (active); GI50 (BT-549): < 10 nM (active); GI50 (CAKI-1): 108 nM (active); GI50 (CCRF-CEM): < 11.9 nM (active); GI50 (COLO 205): 906 nM (active); GI50 (DMS-273): 361 nM (active); GI50 (DU-145): 179 nM (active); GI50 (EKVX): 25 nM (active); GI50 (HCC 2998): 267 nM (active); GI50 (HCT-116): 865 nM (active); GI50 (HCT-15): 137 nM; GI50 (HOP-62): < 10 nM (active); GI50 (HOP-92): 34.8 nM (active); GI50 (HT-29): 210 nM (active); GI50 (Hs-578T): 34.5 nM (active); GI50 (KM-20L2): 1600 nM (inactive); GI50 (KM12): 443 nM (active); GI50 (LOX IMVI): 22.2 nM (active); GI50 (LXFL 529): < 10 nM (active); GI50 (M14): 350 nM (active); GI50 (MCF7): < 26 nM (active); GI50 (MDA-MB-231): 228 nM (active); GI50 (MDA-MB-435): 264 nM (active); GI50 (MDA-N): 294 nM (active); GI50 (MOLT-4): 18.5 nM (active); GI50 (Malme-3M): < 10.8 nM (active); GI50 (NCI-H226): 20.9 nM (active); GI50 (NCI-H23): 161 nM (active); GI50 (NCI-H460): 157 nM (active); GI50 (NCI-H522): 27.6 nM (active); GI50 (NCI/ADR-RES): 697 nM (active); GI50 (OVCAR-3): 202 nM (active); GI50 (OVCAR-4): < 13.2 nM (active); GI50 (OVCAR-5): 1310 nM (inactive); GI50 (OVCAR-8): 36.2 nM (active); GI50 (PC-3): < 19.5 nM (active); GI50 (RXF 393): 11 nM (active); GI50 (RXF 631): 406 nM (active); GI50 (SF-268): 348 nM (active); GI50 (SF-295): 21.8 nM (active); GI50 (SF-539): 18.5 nM (active); GI50 (SK-MEL-28): 28.4 nM (active); GI50 (SK-MEL-2): 21.4 nM (active); GI50 (SK-MEL-5): 173 nM (active); GI50 (SK-OV-3): 31.4 nM (active); GI50 (SN12C): 84.7 nM (active); GI50 (SNB-19): 57.1 nM (active); GI50 (SNB-75): 17.9 nM (active); GI50 (SNB-78): < 10 nM (active); GI50 (SW-620): 266 nM (active); GI50 (T47D): 14.4 nM (active); GI50 (TK-10): 627 nM (active); GI50 (U-251): 88.3 nM (active); GI50 (UACC-257): 1320 nM (inactive); GI50 (UACC-62): 44.8 nM (active); GI50 (UO-31): < 10 nM (active)
